Measured values published in ChEMBL document CHEMBL1201862, “PubChem BioAssay data set” (2004).
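Dose response: 5 concentrations. Exposure: 48 h. Format: 96-well plates. Endpoint: linear interpolation; highest concentration if not reached. GI50: concentration for 50% inhibition of growth.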 Activity calls are given as the source filed them. Rule as the data show it: active = GI50 up to about 1.1 µM and inactive = higher.

Legend:
Experiment in all cases: growth of human tumour cells (NCI), 48 h
BT-549 = system: BT-549
MDA-MB-231 = system: MDA-MB-231
TK-10 = system: TK-10
HCT-15 = system: HCT-15
U-251 = system: U-251
MDA-N = system: MDA-N
LOX IMVI = system: LOX IMVI
NCI-H226 = system: NCI-H226
SNB-75 = system: SNB-75
Malme-3M = system: Malme-3M
A549 = system: A549
SK-MEL-5 = system: SK-MEL-5
MCF7 = system: MCF7
786-0 = system: 786-0
HL-60 = system: HL-60
DU-145 = system: DU-145
T47D = system: T47D
SF-295 = system: SF-295
HOP-62 = system: HOP-62

| Compound | GI50 (BT-549) | GI50 (MDA-MB-231) | GI50 (TK-10) | GI50 (HCT-15) [µM] | GI50 (U-251) | GI50 (MDA-N) | GI50 (LOX IMVI) | GI50 (NCI-H226) | GI50 (SNB-75) | GI50 (Malme-3M) | GI50 (A549) | GI50 (SK-MEL-5) | GI50 (MCF7) | GI50 (786-0) | GI50 (HL-60) | GI50 (DU-145) | GI50 (T47D) | GI50 (SF-295) | GI50 (HOP-62) |
| --- | --- | --- | --- | --- | --- | --- | --- | --- | --- | --- | --- | --- | --- | --- | --- | --- | --- | --- | --- |
| C/C(=N\NC(N)=O)C(CN1CCOCC1)C(c1ccccc1)c1c(O)c2ccccc2oc1=O (stereo not given) | > 100 µM (inactive) | > 100 µM (inactive) | > 100 µM (inactive) | > 100 | > 100 µM (inactive) | > 100 µM (inactive) | > 100 µM (inactive) | > 100 µM (inactive) | > 100 µM (inactive) | > 100 µM (inactive) | > 100 µM (inactive) | > 100 µM (inactive) | > 100 µM (inactive) | > 100 µM (inactive) | > 100 µM (inactive) | > 100 µM (inactive) | – | – | – |
| O=[N+]([O-])c1ccc(N/N=C/CC(O)(C(F)(F)F)C(F)(F)F)c([N+](=O)[O-])c1 | – | > 10 µM (inactive) | 5.79 µM (inactive) | 3.01 | 3.48 µM (inactive) | 5.25 µM (inactive) | 5.55 µM (inactive) | 3.72 µM (inactive) | > 10 µM (inactive) | 4.97 µM (inactive) | 4.69 µM (inactive) | 4.55 µM (inactive) | 3.78 µM (inactive) | 5.04 µM (inactive) | 4.07 µM (inactive) | 3.1 µM (inactive) | 3.21 µM (inactive) | 3.58 µM (inactive) | 4.17 µM (inactive) |
| O=S1(=O)OCCOS(=O)(=O)C1(I)I | – | – | 27.3 µM (inactive) | – | – | – | 16.2 µM (inactive) | 15.3 µM (inactive) | 18.1 µM (inactive) | 20.4 µM (inactive) | 26.2 µM (inactive) | 15.5 µM (inactive) | – | 20.1 µM (inactive) | 21.1 µM (inactive) | – | – | 26.3 µM (inactive) | 19.6 µM (inactive) |
| O=C(O)CNC(=O)C(CSC(=O)OCC1c2ccccc2-c2ccccc21)NC(=O)CCC(NC(=O)OCC1c2ccccc2-c2ccccc21)C(=O)O (stereo not given) | > 100 µM (inactive) | 17.9 µM (inactive) | 22.2 µM (inactive) | 20 | – | 28.1 µM (inactive) | 0.0259 µM (active) | 38.8 µM (inactive) | – | 20.7 µM (inactive) | 14.3 µM (inactive) | 63.4 µM (inactive) | > 100 µM (inactive) | 3.05 µM (inactive) | 28.8 µM (inactive) | 15.3 µM (inactive) | – | 16.6 µM (inactive) | 14.2 µM (inactive) |
| CC(=O)Nc1c(C)ccc2c1C(=O)c1ccccc1C2=O | – | – | > 100 µM (inactive) | > 100 | > 100 µM (inactive) | – | 79.3 µM (inactive) | > 100 µM (inactive) | 45.7 µM (inactive) | > 100 µM (inactive) | > 100 µM (inactive) | > 100 µM (inactive) | – | > 100 µM (inactive) | 47.2 µM (inactive) | – | – | > 100 µM (inactive) | > 100 µM (inactive) |
| CC(=O)c1cccc(NC(=O)C(=O)c2c(O)oc3ccccc3c2=O)c1 | > 100 µM (inactive) | > 100 µM (inactive) | > 100 µM (inactive) | > 100 | > 100 µM (inactive) | > 100 µM (inactive) | > 100 µM (inactive) | > 100 µM (inactive) | > 100 µM (inactive) | > 100 µM (inactive) | > 100 µM (inactive) | > 100 µM (inactive) | > 100 µM (inactive) | > 100 µM (inactive) | 10 µM (inactive) | – | > 100 µM (inactive) | > 100 µM (inactive) | > 100 µM (inactive) |
| O=C1NC(Nc2ccccc2)=NC(C(F)(F)F)(C(F)(F)F)N1 | – | 57.1 µM (inactive) | 68.4 µM (inactive) | 51.1 | 27.9 µM (inactive) | 25.1 µM (inactive) | 37.2 µM (inactive) | 41.1 µM (inactive) | 11.5 µM (inactive) | 30.1 µM (inactive) | 40.9 µM (inactive) | 25.1 µM (inactive) | 37.9 µM (inactive) | 39.1 µM (inactive) | 31.6 µM (inactive) | 35.9 µM (inactive) | 36.4 µM (inactive) | 37 µM (inactive) | 53.3 µM (inactive) |
| O=[N+]([O-])c1cc(-c2ccc([As](=O)(O)O)cc2)ccc1[As](=O)(O)O | > 100 µM (inactive) | > 100 µM (inactive) | > 100 µM (inactive) | > 100 | > 100 µM (inactive) | > 100 µM (inactive) | > 100 µM (inactive) | > 100 µM (inactive) | – | > 100 µM (inactive) | > 100 µM (inactive) | > 100 µM (inactive) | – | > 100 µM (inactive) | > 100 µM (inactive) | > 100 µM (inactive) | > 100 µM (inactive) | > 100 µM (inactive) | > 100 µM (inactive) |
| O=C(O)c1ccc(Nc2nc3cc(C(F)(F)F)ccc3nc2C(=O)O)cc1 | > 100 µM (inactive) | > 100 µM (inactive) | – | > 100 | > 100 µM (inactive) | > 100 µM (inactive) | > 100 µM (inactive) | > 100 µM (inactive) | > 100 µM (inactive) | > 100 µM (inactive) | – | > 100 µM (inactive) | > 100 µM (inactive) | > 100 µM (inactive) | > 100 µM (inactive) | > 100 µM (inactive) | – | > 100 µM (inactive) | > 100 µM (inactive) |
| COC(=O)Cc1cccc2c1CCC2=O | – | > 100 µM (inactive) | > 100 µM (inactive) | > 100 | > 100 µM (inactive) | > 100 µM (inactive) | > 100 µM (inactive) | > 100 µM (inactive) | > 100 µM (inactive) | > 100 µM (inactive) | > 100 µM (inactive) | > 100 µM (inactive) | > 100 µM (inactive) | > 100 µM (inactive) | > 100 µM (inactive) | > 100 µM (inactive) | > 100 µM (inactive) | > 100 µM (inactive) | > 100 µM (inactive) |
| CNC(=O)C(C)Oc1ccc(OCC2CCCCC2)cc1 (stereo not given) | – | – | > 100 µM (inactive) | > 100 | > 100 µM (inactive) | – | > 100 µM (inactive) | > 100 µM (inactive) | 96.2 µM (inactive) | 25.3 µM (inactive) | > 100 µM (inactive) | 82.6 µM (inactive) | – | > 100 µM (inactive) | 34.4 µM (inactive) | – | – | 60.7 µM (inactive) | – |
| c1cc(-c2ccsc2-c2ccsc2)cs1 | 81.1 µM (inactive) | > 100 µM (inactive) | > 100 µM (inactive) | 47.8 | > 100 µM (inactive) | 41.3 µM (inactive) | 55.3 µM (inactive) | – | 44.5 µM (inactive) | 26.9 µM (inactive) | 46.3 µM (inactive) | 71.1 µM (inactive) | > 60.4 µM (inactive) | > 93.3 µM (inactive) | 37.5 µM (inactive) | – | 58.1 µM (inactive) | > 81.1 µM (inactive) | 77.3 µM (inactive) |
| CCN(CC)c1nnc(CCCCCCCCc2nnc(N(CC)CC)o2)o1 | > 100 µM (inactive) | > 100 µM (inactive) | > 100 µM (inactive) | > 100 | > 100 µM (inactive) | > 100 µM (inactive) | > 100 µM (inactive) | > 100 µM (inactive) | > 100 µM (inactive) | > 100 µM (inactive) | > 100 µM (inactive) | > 100 µM (inactive) | > 100 µM (inactive) | > 100 µM (inactive) | > 100 µM (inactive) | > 100 µM (inactive) | – | > 100 µM (inactive) | > 100 µM (inactive) |
| O=C1C=CC(=O)c2c(NCC3CC3)ccc(NCC3CC3)c21 | 25.9 µM (inactive) | 36.1 µM (inactive) | > 100 µM (inactive) | 13.3 | 55.7 µM (inactive) | – | 20.7 µM (inactive) | – | – | 19.8 µM (inactive) | 47.8 µM (inactive) | 22.6 µM (inactive) | 24.7 µM (inactive) | 56.4 µM (inactive) | 11 µM (inactive) | – | 6.34 µM (inactive) | 33.7 µM (inactive) | > 100 µM (inactive) |
| COC(=O)C1(Cc2ccccc2)Cc2c(C)ccc(C)c2C1=O (stereo not given) | – | 15.7 µM (inactive) | 49 µM (inactive) | 31 | 30 µM (inactive) | 37.1 µM (inactive) | 17.2 µM (inactive) | 21.1 µM (inactive) | 17.3 µM (inactive) | 21.4 µM (inactive) | 11.1 µM (inactive) | 11.3 µM (inactive) | 28.7 µM (inactive) | 37.5 µM (inactive) | 20.2 µM (inactive) | 49.2 µM (inactive) | 16.7 µM (inactive) | 31.8 µM (inactive) | 56.9 µM (inactive) |
| CC1=C/C(=N/N2C(=O)/C(=C/c3ccc(Cl)cc3)N=C2c2ccccc2)CC(C)(C)C1 | > 100 µM (inactive) | > 100 µM (inactive) | 89.5 µM (inactive) | > 100 | 21.5 µM (inactive) | 67.6 µM (inactive) | 42.1 µM (inactive) | 90.2 µM (inactive) | 31.5 µM (inactive) | > 100 µM (inactive) | 78.2 µM (inactive) | 35.7 µM (inactive) | 49.8 µM (inactive) | 57 µM (inactive) | – | – | 85.9 µM (inactive) | 51.9 µM (inactive) | 54.2 µM (inactive) |
| CN(C)c1ccc(C=c2c3cc(O)ccc3n3c2cc(-c2ccccc2)[n+]3C)cc1 | 0.383 µM (active) | 1.04 µM (active) | 3.72 µM (inactive) | 18 | 0.317 µM (active) | 0.67 µM (active) | 1.18 µM (inactive) | 1.66 µM (inactive) | 0.468 µM (active) | – | 3.73 µM (inactive) | 0.78 µM (active) | 0.692 µM (active) | 1.09 µM (active) | 0.254 µM (active) | 1.92 µM (inactive) | – | 3.78 µM (inactive) | 1.81 µM (inactive) |
